Data published in patent US10092529B2, “Necrosis inhibitors” (National Institute of Biological Sciences, Beijing, priority 2014, dated 2018).
Where two headings read alike, the source gives them in different places.

Test system: HT-29 cells
Experiment: Necrosis assay: TNF-α/Smac mimetic/z-VAD induced necrosis, cell viability by CellTiter-Glo
Type: cell-based
Conditions: inhibition of necrosis, ATP levels, read-out: EC50 (necrosis activity)
Description: HT-29 cells were cultured in McCoy's 5A culture medium (Invitrogen). On day one, HT-29 cells were plated in 96-well assay plates at density of 2,500-3,500 cells per well. On day two, necrosis were induced by adding 20 ng/ml TNF-α (T), 100 nM Smac mimetic (S), and […] z-VAD (Z). At the same time, […] compound from a chemical library of ˜200,000 compounds was delivered into each well. After 24 hrs treatment, cell viability was determined by measuring ATP level using the CellTiter-Glo Luminescent Cell Viability Assay kit. A CellTiter-Glo Assay (Promega) was performed according to the manufacturer's instructions Luminescence was recorded with a PerkinElmer EnSpire Multimode Plate Reader. Survived cells were normalized to those cells treated with DMSO. Nec-1 was used as a positive control for screening necrosis inhibitors. Data are represented as mean±standard deviation of duplicates.
Dose-dependent inhibition of necrosis by compound #9 and the derivative compounds in HT-29 cells were determined by measuring ATP levels as described above.

[1] = Homo sapiens, range given in uM

Row | Compound | EC50 [1] [µM] | other results
1 | CCC(C)(C)C(=O)N1CCNCC1c1ccccc1 (stereo not drawn) [Compound 17, 2,2-dimethyl-1-(2-phenylpiperazin-1-yl)butan-1-one] | 1 to 100 | 
2 | CC(F)(F)C(C)(C)C(=O)N1C=CC=CC1c1ccccc1 (stereo not drawn) [Compound S15] | 1 to 100 | 
3 | CCC(C)(C)C(=O)N1C(=O)CC1c1cccc([N+](=O)[O-])c1 (stereo not drawn) [Compound 28, 1-(2,2-dimethylbutanoyl)-4-(3-nitrophenyl)azetidin-2-one] | 1 to 10 | 
4 | C=CC(C)(C)C(=O)N1CCC1c1ccc(C)s1 (stereo not drawn) [Compound 63] |  | EC50 (range given in uM): 1 to 1000 µM
5 | C=CC(C)(C)C(=O)N1CCC1c1cccs1 (stereo not drawn) [Compound 62] |  | EC50 (range given in uM): 1 to 1000 µM
6 | CCC(C)(C)C(=O)N1C(=O)C(F)(F)C1c1ccccc1 (stereo not drawn) [Compound 32, 1-(2,2-dimethylbutanoyl)-3,3-difluoro-4-phenylazetidin-2-one] |  | EC50 (range given in nM): 0.001 to 1 µM
7 | CCC(C)(C)C(=O)N1OCCC1c1ccccc1 (stereo not drawn) [Compound 76] |  | EC50 (range given in uM): 1 to 1000 µM
8 | CCC(C)(C)C(=O)N1N=CCC1c1ccccc1 (stereo not drawn) [Compound 20, 2,2-dimethyl-1-(5-phenyl-4,5-dihydro-1H-pyrazol-1-yl)butan-1-one] |  | EC50 (range given in nM): 0.001 to 1 µM
9 | CCC(C)(C)C(=O)N1CCN(C(=O)OC(C)(C)C)CC1c1ccccc1 (stereo not drawn) [Compound 19, tert-butyl 4-(2,2-dimethylbutanoyl)-3-phenylpiperazine-1-carboxylate] | 1 to 100 | 
10 | CCC(C)(C)C(=O)N1COC[C@H]1c1ccccc1 [Compound 8, (R)-2,2-dimethyl-1-(4-phenyloxazolidin-3-yl)butan-1-one] |  | EC50 (range given in nM): 0.001 to 1 µM
11 | CC(C)(C)C(=O)N1CC[C@H]1c1ccccc1 [Compound S12, (S)-2,2-dimethyl-1-(2-phenylazetidin-1-yl)propan-1-one] |  | EC50 (range given in nM): 0.001 to 1 µM
12 | CCS(=O)(=O)N1C(=O)C[C@H]1c1ccccc1 [Compound 43, (S)-1-(ethylsulfonyl)-4-phenylazetidin-2-one] | 1 to 100 | 
13 | C=CC(C)(C)C(=O)N1CCC=C[C@H]1C1CCCCC1 [Compound 54] |  | EC50 (range given in uM): 1 to 1000 µM
14 | CC(C)(C)[S+]([O-])N1C(=O)C[C@H]1c1ccccc1 (stereo partly drawn) [Compound 41, (4S)-1-(tert-butylsulfinyl)-4-phenylazetidin-2-one] | 1 to 100 | 
15 | CC(F)(F)C(C)(C)C(=O)N1C=CC=CC1C1CCCCC1 (stereo not drawn) [Compound S14] | 1 to 100 | 
16 | C=CC(C)(C)C(=O)N1CCC=C[C@H]1c1ccccc1 [Compound 75] |  | EC50 (range given in uM): 1 to 1000 µM
17 | O=C(N1CCCC1c1cccc(F)c1)C1(C(F)(F)F)CCC1 (stereo not drawn) [Compound 36, (2-(3-fluorophenyl)pyrrolidin-1-yl)(1-(trifluoromethyl)cyclobutyl)methanone] |  | EC50 (range given in nM): 0.001 to 1 µM
18 | CCC(C)(C)C(=O)N1CC(O)C1c1ccccc1 (stereo not drawn) [Compound 16, 1-(3-hydroxy-2-phenylazetidin-1-yl)-2,2-dimethylbutan-1-one] | 1 to 10 | 
19 | CCC(C)(C)C(=O)N1C=CC=CC1C1CCCCC1 (stereo not drawn) [Compound 56] |  | EC50 (range given in uM): 1 to 1000 µM
20 | CCC(C)(C)C(=O)N1CCCCC1c1ccccc1 (stereo not drawn) [Compound 11, 2,2-dimethyl-1-(2-phenylpiperidin-1-yl)butan-1-one] | 1 to 100 | 
21 | C=CC(C)(C)C(=O)N1C=CC=CC1c1ccccc1 (stereo not drawn) [Compound 58] |  | EC50 (range given in uM): 1 to 1000 µM
22 | CCC(C)(C)C(=O)N1C(c2ccccc2)CCN1C (stereo not drawn) [Compound 22, 2,2-dimethyl-1-(2-methyl-5-phenylpyrazolidin-1-yl)butan-1-one] |  | EC50 (range given in nM): 0.001 to 1 µM
23 | CCN1C(=O)C[C@H]1c1ccccc1 [Compound 48, (S)-1-ethyl-4-phenylazetidin-2-one] | 1 to 100 | 
24 | O=C(N1CCCC1c1cccc(F)c1)C1(C(F)(F)F)CCCC1 (stereo not drawn) [Compound 35, (2-(3-fluorophenyl)pyrrolidin-1-yl)(1-(trifluoromethyl)cyclopentyl)methanone] |  | EC50 (range given in nM): 0.001 to 1 µM

Row | Compound | EC50 [1] [µM] | other results
25 | CCN1C(=O)OC[C@H]1c1ccccc1 [Compound 51, (R)-3-ethyl-4-phenyloxazolidin-2-one] | 1 to 100 | 
26 | CC(C)(C)C(=O)N1CCCC1c1ccccc1 (stereo not drawn) [Compound S11, 2,2-dimethyl-1-(2-phenylpyrrolidin-1-yl)propan-1-one] |  | EC50 (range given in nM): 0.001 to 1 µM
27 | CCC(C)(C)C(=O)N1C(=O)CCC1c1ccccc1 (stereo not drawn) [Compound 29, 1-(2,2-dimethylbutanoyl)-5-phenylpyrrolidin-2-one] | 1 to 100 | 
28 | CC(F)(F)C(C)(C)C(=O)N1CCC=C[C@H]1c1ccccc1 [Compound S17] | 1 to 100 | 
29 | C#CCN1C(=O)OC[C@H]1c1ccccc1 [Compound 52, (R)-4-phenyl-3-(prop-2-yn-1-yl)oxazolidin-2-one] | 1 to 100 | 
30 | C#CCN1C[C@@H](c2ccccc2)N(C(=O)C(C)(C)CC)C1=O [Compound 30, (R)-3-(2,2-dimethylbutanoyl)-4-phenyl-1-(prop-2-yn-1-yl)imidazolidin-2-one] | 1 to 10 | 
31 | C#CC(C)(C)C(=O)N1C(=O)CC1c1cccc(N=[N+]=[N-])c1 (stereo not drawn) [Compound 44, 4-(3-azidophenyl)-1-(2,2-dimethylbut-3-ynoyl)azetidin-2-one] | 1 to 10 | 
32 | CCC(C)(C)C(=O)N1CC(F)(F)C1c1ccccc1 (stereo not drawn) [Compound 14, 1-(3,3-difluoro-2-phenylazetidin-1-yl)-2,2-dimethylbutan-1-one] |  | EC50 (range given in nM): 0.001 to 1 µM
33 | CC(F)(F)C(C)(C)C(=O)N1CC[C@H]1c1ccccc1 [Compound S9] |  | EC50 (range given in nM): 0.001 to 1 µM
34 | CCC(C)(C)S(=O)(=O)N1CC[C@H]1c1ccccc1 [Compound 70] |  | EC50 (range given in uM): 1 to 1000 µM
35 | CCC(C)(C)C(=O)N1CC=C[C@H]1c1ccccc1 [Compound 72] |  | EC50 (range given in uM): 1 to 1000 µM
36 | CCC(C)(C)C(=O)N1C(=O)CCN1c1ccccc1 [Compound 33, 2-(2,2-dimethylbutanoyl)-1-phenylpyrazolidin-3-one] | 1 to 100 | 
37 | CCC(C)(C)C(=O)N1CCC(=O)[C@H]1c1ccccc1 [Compound S3, (R)-1-(2,2-dimethylbutanoyl)-2-phenylpyrrolidin-3-one] | 1 to 10 | 
38 | C=CC(C)(C)C(=O)N1CCC1c1ncc(C)s1 (stereo not drawn) [Compound 66] |  | EC50 (range given in uM): 1 to 1000 µM
39 | CCC(C)(C)C(=O)N1CCC=C[C@H]1c1ccccc1 [Compound 74] |  | EC50 (range given in uM): 1 to 1000 µM
40 | CCC(C)(C)C(=O)N1CCC1c1ccco1 (stereo not drawn) [Compound 61] |  | EC50 (range given in uM): 1 to 1000 µM
41 | O=C(N1CCCC1c1cccc(F)c1)C12CC3CC(CC(C3)C1)C2 (stereo not drawn) [Compound 37, adamantan-1-yl(2-(3-fluorophenyl)pyrrolidin-1-yl)methanone] | 1 to 100 | 
42 | CCC(C)(C)C(=O)N1CC[C@@H](O)[C@H]1c1ccccc1 [Compound S2, 1-((2R,3R)-3-hydroxy-2-phenylpyrrolidin-1-yl)-2,2-dimethylbutan-1-one] | 1 to 100 | 
43 | C#CCN1C(=O)C[C@H]1c1ccccc1 [Compound 49, (S)-4-phenyl-1-(prop-2-ynyl)azetidin-2-one] | 1 to 100 | 
44 | O=C1C[C@@H](c2ccccc2)N1C(=O)C1C2CC3CC(C2)CC1C3 (stereo partly drawn) [Compound 47, (S)-1-(adamantane-2-carbonyl)-4-phenylazetidin-2-one] | 1 to 10 | 
45 | CCC(C)(C)C(=O)N1CCC=C[C@H]1C1CCCCC1 [Compound 53] |  | EC50 (range given in uM): 1 to 1000 µM
46 | CCS(=O)(=O)N1CC[C@H]1c1ccccc1 [Compound S6, (S)-1-(ethylsulfonyl)-2-phenylazetidine] | 1 to 100 | 
47 | CC(C)(C)S(=O)(=O)N1CC[C@H]1c1ccccc1 [Compound S8, (S)-1-(tert-butylsulfonyl)-2-phenylazetidine] | 1 to 100 | 
48 | CC(F)(F)C(C)(C)C(=O)N1CC=C[C@H]1c1ccccc1 [Compound S16] | 1 to 100 | 
